Results reported in patent US8691286B2, “Sputum dissolving suctioning solution for endotracheal and tracheostomy tubes” (Teleflex Medical Incorporated, priority 2009, dated 2014).

Assay: Effective concentration of glycerol (Example 2; sputum dried 4 hours, 15 minutes incubation in third cycle)
Design: species or system Human
Conditions: glycerol and dextran sulfate combination in 0.85% NaCl
Experimental: Test solutions containing different concentrations of glycerol and dextran sulfate (w/v) were prepared in 0.85% normal saline. All steps were performed at 37° C. unless specified otherwise. Each well of a 48 well microtitre plate was pre-wetted with a test solution for 2 hours. Human sputum (20 μl) was then allowed to dry for 2 hours on the pre-wetted surface, followed by incubation with 100 μl of the test solution for 15 minutes to dissolve the dried sputum, and subsequent removal of the solution. The complete cycle of sputum drying, incubation with the test solution and removal, was repeated three times. In the third and final cycle, the dried sputum was incubated with the test solution overnight instead of 15 minutes. Visual observations were recorded at each cycle and pictures were taken under a microscope.
Sputum was dried for 4 hours instead of 2 hours in each cycle, and in the third cycle dried sputum was incubated with the test solution for only 15 minutes instead of an overnight incubation.
All the test solutions contained 0.85% of NaCl.

Molecule | Most effective concentration range
OCC(O)CO [glycerol] | 30-50%
dextran sulfate | 10-20%
